Reference: ChEMBL document CHEMBL1133380, “3-Imidazolylmethylaminophenylsulfonyltetrahydroquinolines, a novel series of farnesyltransferase inhibitors” (Bioorg Med Chem Lett, 2000)

Target: Protein farnesyltransferase (Homo sapiens, UniProt P49354+P49356)
Assay: Inhibition of Farnesyltransferase
Type: protein-complex assay

| SMILES | IC50 |
| --- | --- |
| CSCC[C@H](NC(=O)[C@@H]1Cc2ccccc2CN1C(=O)[C@@H](NCCc1cnc[nH]1)C(C)C)C(=O)O | 0.8 nM |
| O=S(=O)(c1cccc(N(Cc2cnc[nH]2)Cc2cnc[nH]2)c1)N1CCCc2ccccc21 | 130 nM |
| CCCCOc1ccc(S(=O)(=O)N2CCCc3ccccc32)cc1N(Cc1cnc[nH]1)Cc1cnc[nH]1 | 480 nM |

The remaining compounds from weak to strong by IC50, led by results:

| IC50 | SMILES |
| --- | --- |
| 15000 nM | O=S(=O)(c1cccc(NCc2cnc[nH]2)c1)N1CCCc2ccccc21 |
| 570 nM | N#Cc1cccc(CN(Cc2c[nH]cn2)c2cccc(S(=O)(=O)N3CCCc4ccccc43)c2)c1 |
| 0.6 nM | CSCC[C@H](NC(=O)[C@@H]1Cc2ccccc2CN1C(=O)[C@@H](NC[C@@H](N)CS)C(C)C)C(=O)O |
